30 compounds from ChEMBL document CHEMBL1149625, “Rational design of 6-(2,4-diaminopyrimidinyl)-1,4-benzoxazin-3-ones as small molecule renin inhibitors” (Bioorg Med Chem, 2007) can be followed below.

In brackets after ≈: the same amount, converted by molar mass.

A short description of data set [1]: in vivo. Particulars: rat, iv, 1 mg/kg.
A short description of data set [2]: physchem. Particulars: aqueous, pH 6.5, Solubility.
Data set [3] in a line: Volume of distribution at steady state in rat at 1 mg/kg, iv or 5 mg/kg, po. It is filed as ADME, organism-based. As to conditions: in vivo, read-out: Vdss.
The nature of data set [4]: in vivo. As to conditions: rat, po, 10 mg/kg.
Data set [5] can be described thus: in vivo. Particulars: rat, po, 10 mg/kg. The source holds these as a separate data set.
The nature of data set [6]: Bioavailability in dog at 5 mg/kg, po. As to conditions: in vivo. The class given is ADME, organism-based, Canis lupus familiaris.
The nature of data set [7]: Volume of distribution at steady state in rat at […], iv or […], po. Particulars: in vivo, read-out: Vdss. The class given is ADME, organism-based.
Data set [8] can be described thus: Cmax in rat at […], iv or […], po. The class given is ADME, organism-based. As to conditions: in vivo.
The nature of data set [9]: Bioavailability in rat at […], po. It is filed as ADME, organism-based. As to conditions: in vivo.
Data set [10] can be described thus: Cmax in rat at 1 mg/kg, iv or 5 mg/kg, po. The class given is ADME, organism-based. Particulars: in vivo.
The nature of data set [11]: Bioavailability in rat at 5 mg/kg, po. It is filed as ADME, organism-based. As to conditions: in vivo.
The conditions of data set [12]: buffer, pH 6.5.

The solubility is the concentration that dissolves in the medium under given conditions. A lower solubility goes with little dissolved substance. Turning to `CCc1nc(N)nc(N)c1-c1ccc2c(c1)N(CCO)C(=O)C(C)(c1cc(F)cc(F)c1)O2` (stereo not given), the Vd in [1] was found to be 3.3 L/kg. In addition, in data set [2], the concentration in solution (solubility) was 89 µg/mL (≈ 195 µM).
As to `CCc1nc(N)nc(N)c1-c1ccc2c(c1)N(CCNC(C)=O)C(=O)[C@@](C)(c1ccccc1)O2`, in data set [2], the solubility amounted to 40 µg/mL (≈ 86.9 µM).
The same measure, in the same setting: the value for `CCc1nc(N)nc(N)c1-c1ccc2c(c1)N(CCCOC)C(=O)C(CC)(CC)O2` was 16 µg/mL (≈ 38.7 µM).
As to `CCc1nc(N)nc(N)c1-c1ccc2c(c1)N(CCNC(=O)CO)C(=O)C(C)(c1cc(F)cc(F)c1)O2` (stereo not given), the Vd in [3] is 2.9 L/kg. Moreover, in data set [2], the solubility came to 59 µg/mL (≈ 115 µM).
On to `CCc1nc(N)nc(N)c1-c1ccc2c(c1)N(CCCOC)C(=O)C(C)(CC)O2` (stereo not given), for which, in data set [2], the concentration in solution (solubility) was 54 µg/mL (≈ 135 µM).
In the case of `CCc1nc(N)nc(N)c1-c1ccc2c(c1)N(CCC(=O)NC)C(=O)C(C)(c1cc(F)cc(F)c1)O2` (stereo not given), in data set [3], the Vd came out at 2.1 L/kg. Further, the solubility in data set [2] stood at 133 µg/mL (≈ 268 µM).
In data set [2], `CCc1nc(N)nc(N)c1-c1ccc2c(c1)N(CCNS(C)(=O)=O)C(=O)C(C)(c1cc(F)cc(F)c1)O2` (stereo not given) displayed a solubility of 200 µg/mL (≈ 376 µM).
The Cmax is the highest concentration seen after dosing. In general, bioavailability refers to the share of a dose that reaches the circulation, judged against a reference dose that is usually intravenous. A low value points to little systemic uptake. Turning to `CCc1nc(N)nc(N)c1-c1ccc2c(c1)N(CCNC(=O)OC)C(=O)C(C)(c1cc(F)cc(F)c1)O2` (stereo not given), the Vd in [1] is 3.5 L/kg. The compound also returned a Cmax in data set [4] of 280 ng/mL. In [5], the bioavailability is 34%.
In data set [1], `CCc1nc(N)nc(N)c1-c1ccc2c(c1)N(CCCOC(F)(F)F)C(=O)C(C)(c1cc(F)cc(F)c1)O2` (stereo not given) gave a Vd of 6.3 L/kg. Besides, the highest level in [4] (Cmax) was 200 ng/mL. The compound further gave a bioavailability in [5] of 28%. In data set [2], the concentration in solution (solubility) came to 7.8 µg/mL (≈ 14.5 µM).
Take `CCc1nc(N)nc(N)c1-c1ccc2c(c1)N(CCCC(F)(F)F)C(=O)[C@](C)(c1cc(F)cc(F)c1)O2`: the bioavailability in data set [6] stood at 19%; in data set [5] it was 74%. In data set [1], this compound showed a Vd of 5.7 L/kg. In data set [4], this compound yielded a Cmax of 380 ng/mL.
`CCc1nc(N)nc(N)c1-c1ccc2c(c1)N(CCNC(C)=O)C(=O)[C@](C)(c1ccccc1)O2` yielded a solubility in [2] of 119 µg/mL (≈ 258 µM).
As for `CCOCCCN1C(=O)C(C)(c2cc(F)cc(F)c2)Oc2ccc(-c3c(N)nc(N)nc3CC)cc21` (stereo not given), in [7], the Vd worked out at 2 L/kg. The compound also showed a Cmax in data set [8] of under 5 ng/mL. Moreover, in [9], the bioavailability amounted to 0%. Moreover, the concentration in solution in [2] (solubility) was 59 µg/mL (≈ 119 µM).
Consider `CCc1nc(N)nc(N)c1-c1ccc2c(c1)N(CCCO)C(=O)C(C)(c1cc(F)cc(F)c1)O2` (stereo not given), for which, in [3], the Vd was 3.1 L/kg. In data set [10], this compound yielded a Cmax of 180 ng/mL. In data set [11], this compound gave a bioavailability of 44%. The concentration in solution in data set [2] (solubility) was 28 µg/mL (≈ 59.6 µM).
`CCc1nc(N)nc(N)c1-c1ccc2c(c1)N(CCNC(C)=O)C(=O)C(C)(C(F)(F)F)O2` (stereo not given): in data set [2], the solubility was 200 µg/mL (≈ 442 µM).
As to `CCc1nc(N)nc(N)c1-c1ccc2c(c1)N(CCNC(C)=O)C(=O)C1(CC1)O2`, the solubility in [2] stood at 24 µg/mL (≈ 60.5 µM).
Take `CCNC(=O)CN1C(=O)C(C)(c2cc(F)cc(F)c2)Oc2ccc(-c3c(N)nc(N)nc3CC)cc21` (stereo not given): the Vd in [7] came out at 3.1 L/kg. For the same compound, the Cmax in [8] is 60 ng/mL. This compound also yielded a bioavailability in data set [9] of 14%. For the same compound, the concentration in solution in [2] (solubility) was 89 µg/mL (≈ 179 µM).
Regarding `CCc1nc(N)nc(N)c1-c1ccc2c(c1)N(CCCOC)C(=O)C(C)(C)O2`, the solubility in data set [2] was determined as 34 µg/mL (≈ 88.2 µM).
The compound `CCc1nc(N)nc(N)c1-c1ccc2c(c1)N(CCCCO)C(=O)C(C)(c1cc(F)cc(F)c1)O2` (stereo not given) returned a Vd in [1] of 2.3 L/kg. Besides, the highest level in [4] (Cmax) was 186 ng/mL. The same compound yielded a bioavailability in data set [5] of 7%. In addition, the concentration in solution in [2] (solubility) was 59 µg/mL (≈ 122 µM).
For `CCc1nc(N)nc(N)c1-c1ccc2c(c1)N(CCCC#N)C(=O)C(C)(c1cc(F)cc(F)c1)O2` (stereo not given), in that order: 1.9 L/kg, 237 ng/mL, 12% and 3.5 µg/mL (≈ 7.31 µM).
Compound `CCc1nc(N)nc(N)c1-c1ccc2c(c1)N(CCCOC)C(=O)C(C)(c1ccc(F)c(F)c1)O2` (racemic) gave a solubility in data set [2] of 13 µg/mL (≈ 26.9 µM).
On the same count and under the same terms, in the case of `CCc1nc(N)nc(N)c1-c1ccc2c(c1)N(CCNC(C)=O)C(=O)C(C)(c1ccc(Cl)cc1)O2` (racemic) it was 12 µg/mL (≈ 24.2 µM); in that of `CCc1nc(N)nc(N)c1-c1ccc2c(c1)N(CCNC(C)=O)C(=O)C(C)(c1cc(F)ccc1F)O2` (racemic), 2.3 µg/mL (≈ 4.63 µM).
Consider `CCc1nc(N)nc(N)c1-c1ccc2c(c1)N(CCCOC)C(=O)C(C)(c1cc(F)cc(F)c1)O2` (racemic), for which, in [3], the Vd was found to be 4.5 L/kg. The Cmax in data set [10] amounted to 23 ng/mL. In data set [11], the bioavailability turned out to be 0.4%. For the same compound, the solubility in [12] amounted to 87 µg/mL (≈ 180 µM).
`CCc1nc(N)nc(N)c1-c1ccc2c(c1)N(CCCOC)C(=O)C(CC)(c1cc(F)cc(F)c1)O2` (racemic) gave a solubility in data set [2] of 2.6 µg/mL (≈ 5.23 µM).
In data set [1], `CCc1nc(N)nc(N)c1-c1ccc2c(c1)N(CCCC(F)(F)F)C(=O)C(C)(c1cc(F)cc(F)c1)O2` (racemic) returned a Vd of 5.1 L/kg. Besides, the Cmax in [4] came out at 160 ng/mL. This compound also came in with a bioavailability in data set [5] of 12%. The solubility in data set [2] was 5.2 µg/mL (≈ 9.97 µM).
The compound `CCc1nc(N)nc(N)c1-c1ccc2c(c1)N(CCNC(C)=O)C(=O)C(C)(c1cccc(C(F)(F)F)c1)O2` (racemic) displayed a solubility in data set [2] of 12 µg/mL (≈ 22.7 µM).
As for `CCc1nc(N)nc(N)c1-c1ccc2c(c1)N(CCNC(C)=O)C(=O)C(C)(c1cccc(Cl)c1)O2` (racemic), in data set [2], the solubility is 133 µg/mL (≈ 269 µM).
The compound `CCc1nc(N)nc(N)c1-c1ccc2c(c1)N(CCNC(C)=O)C(=O)C(C)(c1cc(F)cc(F)c1)O2` (racemic) displayed a solubility in data set [12] of 133 µg/mL (≈ 268 µM).
In data set [2], `CCc1nc(N)nc(N)c1-c1ccc2c(c1)N(CCCOC)C(=O)C(C)(c1cc(F)cc(F)c1)O2` (stereo in doubt; 25) yielded a solubility of 87 µg/mL (≈ 180 µM).
Take `CCc1nc(N)nc(N)c1-c1ccc2c(c1)N(CCNC(C)=O)C(=O)C(C)(c1cc(F)cc(F)c1)O2` (stereo in doubt; 26): the Vd in data set [3] amounted to 2.1 L/kg. In [10], this compound returned a Cmax of 220 ng/mL. Also, the bioavailability in [11] is 8%. Moreover, the solubility in data set [2] was 95 µg/mL (≈ 191 µM).
